Laboratory results: a melting point compilation (Tetko et al.; mined from patent text by program, amines drawn as free bases though some values may be those of a salt)

SMILES	melting point [°C]
CC1(C)CCC(C)(C)c2c(CC#Cc3ccc(C(=O)O)cc3)cc(-c3ccccc3)cc21	228
CC(=O)C1(CCC(=O)OC(C)(C)C)CCCCC1=O (stereo not drawn)	47 to 53
N#Cc1c(-c2cc3ccccc3s2)nn(-c2ccccc2)c1N	260 to 262
COc1cc(-c2ccccc2)nc(-c2ccc(CBr)cc2)n1	98 to 100
O=C(O)c1ccc(-c2cc(-c3ccccc3)on2)cc1	297 to 298
Cn1ncc2c(c1=O)SCCNC2C(=O)c1ccc([N+](=O)[O-])cc1 (stereo not drawn)	230 to 232
O=C(O)C1CCc2c([nH]c3ccc(O)cc23)C1 (stereo not drawn)	255 to 257
COC(=O)c1cccc(C2CCCS2)c1N (stereo not drawn)	75 to 79
Cc1cc(O)c2c(c1O)C(=O)c1ccccc1C2=O	177 to 178
Cc1oc(-c2ccc(F)cc2)cc1CC(=O)O	52 to 53
CCOC(=O)c1cnn(-c2ccc(-n3cc(OC)c(=O)c(-c4ccnn4-c4ccccc4)n3)c(F)c2)c1O	188 to 193
CN1CCC(c2cc(-c3ccncc3)c(-c3cccc(C(F)(F)F)c3)nn2)CC1	188 to 189
CN(C)c1ncnc2c1ncn2C1CC(F)C(CO)O1 (stereo not drawn)	105 to 107
O=C(O)CCCn1ccc(=O)c(O)c1Cc1ccccc1	170 to 172
CCCCn1c(C)c(C)cc(N)c1=O	94 to 97
COC(=S)c1ccc(C)c(C2=NOCC2)c1C	109 to 111
CCCCCCCCCCCC(=O)Oc1ccc2[nH]c3c(C)c4ccncc4c(C)c3c2c1	188 to 190
C[C@@H](c1ccccc1)N1CC[C@@H](C2(N(Cc3ccccc3)Cc3ccccc3)CC2)C1	61 to 61.3
O=[N+]([O-])C=C1NCCN1Cc1ccno1	156 to 158
CC(NC(=O)[C@@H](N)C(C)C)c1cc2ccccc2s1 (stereo partly drawn)	70 to 71
CC1=C(c2ccnnc2)SCC(=O)N1	231 to 233
CC(C)(C(=O)O)c1ccc(C(=O)CCCN2CCC(OC(c3ccccc3)c3ccccc3)CC2)cc1	93 to 95
C#CC1(COCc2ccccc2)OC(n2ccc(=O)[nH]c2=O)C(OC(C)=O)C1OCc1ccccc1 (stereo not drawn)	105 to 106
CCCc1c(OCCCSc2ccc(CC(=O)O)c(Cl)c2Cl)ccc(C(C)=O)c1O	119 to 122
CNC(=O)c1cc(-c2ccc(OC)cc2)nn(Cc2ccc(Cl)cc2Cl)c1=O	154 to 156

SMILES	melting point [°C]
CCOC(=O)C1C(=O)C=C(c2ccc(OCC(=O)O)c(Cl)c2Cl)CC1c1ccccc1 (stereo not drawn)	91
N#Cc1c[nH]cc1-c1ccccc1Cl	138 to 139
Cc1cc2cccc(Br)c2nc1C	78
CSc1cccc(NC(=O)N(O)C2CCCCC2)c1	147 to 148
COc1ccc(C(=O)O)c(C(=O)O)c1	168 to 174
CC(=O)c1c(-c2ccc(F)cc2)nc2occn12	173
CC(C)CC(C#N)NC(=O)C1CCCCC1NC(=O)OCc1ccccc1 (stereo not drawn)	104 to 106
COc1cc(Nc2c(C#N)cnc3cc(-c4cncc(CN5CCOCC5)c4)ccc23)c(Cl)cc1Cl	141 to 143
CC(C)(C)c1cc(-c2ccccc2NC(=O)CCCC(=O)O)cc(C(C)(C)C)c1O	132 to 134
OCCCc1cccc(CCCO)c1O	176 to 187
COc1ccc(Cl)c(CBr)c1	51 to 52
COC(=O)CCNC(=O)C(=Cc1ccccc1)CSC(=O)c1ccccc1	66
O=C(NCC1CC1)c1c(NC(=O)c2cc(C(F)(F)F)nn2-c2ncccc2Cl)c(Br)cc2cn[nH]c12	144 to 150
O=P(O)(O)C1CCCN1 (stereo not drawn)	275 to 280
CCOC(=O)c1ccc(C(=O)CBr)cc1	67 to 68.5
COc1nc(C)c(C)cc1NC(=O)N1CCN(C(c2ccccc2)c2ccccc2)CC1	132 to 134
O=c1oc2ncccc2n1CCBr	109 to 110
COc1ccc(-c2cc(F)c(F)cc2-c2ccc(S(C)(=O)=O)cc2)cc1F	159 to 160
COc1cc2c(cc1-c1nocc1-c1ccccc1C#N)C(C)(C)CCC2(C)C	202 to 203
O=C(NC1CCCCC1)OC1CCCCC1	77 to 78
CN(C)CCCc1cc(C(=O)Nc2ccc(-c3ccc(C(=O)O)cc3)cc2)ccc1O	278 to 280
Cc1ccc(-n2nc3c(cc2=O)CCc2sc(C(C)O)cc2-3)cc1 (stereo not drawn)	146 to 148
Cc1ncc(-c2nc3cc4c(cc3[nH]2)NC(=O)C4(C)C)cn1	> 350
CCCCCCCCOc1ccc(-c2ncc(Br)cn2)c(F)c1	7.16
Cc1cccc(Nc2nnc(C3OCOCO3)c3ccccc23)c1	161

SMILES	melting point [°C]
COC(=O)C=Cc1ccc(-c2ccccc2)cc1	144 to 147
Cc1cccc(N(c2ccccc2)c2ccc3c(c2)C(CCCO)(CCCO)c2cc(N(c4ccccc4)c4cccc(C)c4)ccc2-3)c1	216 to 217
CC(C)(C)OC(=O)N[C@@H](Cc1ccccn1)C(=O)NCC(=O)c1ccc(-c2ccccc2)cc1	129 to 132
Cc1cc(C#N)cc(C(=O)Nc2ccc(C#N)cn2)n1	279
COc1cc(-c2ccc(C(C)(C)C)s2)cc2oc(=O)c(C)c(C)c12	137
Cc1sc(-c2cc([N+](=O)[O-])cc([N+](=O)[O-])c2)nc1O	247 to 248
COc1ccc(C(=O)CCC(=O)O)c(Cl)c1Cl	142 to 144
O=c1c2cc(F)c(N3CCCC3)nc2n(-c2ccc(C(F)(F)F)cc2)c(=O)n1OCc1ccccc1	231 to 233
CCCCC/C(=C\C=C\C(=O)NCCCCc1cccnc1)c1ccc(OC)cc1	81.5 to 82.5
COc1ccc(NC(=O)NC2N=C(c3ccccc3)c3ccccc3N(C)C2=O)cc1 (stereo not drawn)	261 to 263
COC(=O)Cc1cc(=O)[nH]c2cc(Br)ccc12	208 to 210
CCCc1c(OCCCOc2ccc(N)cc2)ccc2c1OC(CCC(=O)OCC)(CCC(=O)OCC)CC2=O	126 to 127
COCCc1nc2c(N)nc3ccccc3c2n1CCOCCN(C)S(=O)(=O)C(C)C	130
N#CC1=C(C#N)Sc2nc3cc(Cl)ccc3nc2S1	278 to 280
C#Cc1c(N)nc(-c2ccc(Cl)c(OC)c2F)nc1C(=O)OC	174 to 176
CCCOC[C@]1(OC)CC[C@H]2[C@@H]3CCC4=CC(=O)CCC4=C3[C@@H](c3ccc(C(C)=O)cc3)C[C@@]21C	118 to 120
CC(=O)Nc1ccc(N2N=C(C)CC2=O)cc1	230
COc1ccc(-c2cccc(C(=O)NCCO)c2)c2cc(Cc3cccc(C(F)(F)F)c3)oc12	111 to 112
CCc1c(C(=O)c2cc(C)cc(C=CC#N)c2)[nH]c(=O)[nH]c1=O	305 to 306
Clc1ccc(Oc2cncc3sc(C4=NCCN4)cc23)cc1	154 to 155
C#CCOc1cc(Oc2cccc(Cl)c2Cl)ncn1	91.9
CC(C)(C)OC(=O)NCc1[nH]c(C(=O)O)cc(=O)c1O	> 300
Cc1cc(-c2cc(C(F)(F)F)n3ncc(C(=O)Nc4cc(S(=O)(=O)NC(C)(C)CO)sc4Cl)c3n2)ccc1C(F)(F)F	207
